Where “and” joins values, the source holds several entries; their conditions need not be identical. Equal entries are not always repeated. Where two headings read alike, the source gives them in different places.
Assays:
copper = assay: Study 301: plasma copper pharmacodynamics (dNCC, LBC, plasma total copper; daily mean AUEC); format: in vivo, human; settings: for Mean Daily dNCC AUEC0-48w, Mean (SD): Full Analysis Set; for Mean Daily dNCC AUEC0-48w, Mean (SD) / Mean Daily dNCC AUEC0-48w, LSM (SE): multiple imputation
Text: FIG. 1 provides a schematic view of the study design. […] This study is referred throughout as Study 301.
The primary endpoint integrated copper mobilization and sequestration (i.e., copper control) throughout the 48-week Primary Treatment Period by assessment of daily mean area under the effect-time curve (AUEC) of directly measured non-ceruloplasmin-bound copper (dNCC) concentration. […] Measurement of dNCC in plasma is highly sensitive and accurate, requiring no special formulas or assumptions. As proposed, dNCC AUEC0-48W is an indirect measure of copper mobilization and sequestration.
This assessment is also applicable to SoC treatments. In addition, plasma Cp, CpC, plasma total copper, and LBC were measured with AUEC calculated for plasma total copper and LBC.
Pharmacodynamics: Blood samples were collected to directly measure plasma total copper, PUF copper, dNCC, and LBC. Calculations may be performed for cNCC and cNCCconnected, the latter of which is non-ceruloplasmin-bound and non-molybdenum-albumin-bound copper.
The AUEC for dNCC concentration was calculated using the trapezoidal rule, and then divided by number of days to yield a mean daily AUEC plasma dNCC concentration from baseline to Week 48 (expressed as μmol/L and described as AUEC0-48W).
Tests were performed at a significance level of 0.05 (2-sided).

[1] = Text: Adverse events were reported by the patient (or, when appropriate, by a caregiver, surrogate, or the patient's legally authorized representative). The Investigator and any qualified designees were responsible for detecting, documenting, and recording events that meet the definition of an AE or SAE and remain responsible for following up AEs that were serious, considered related to the study intervention or study procedures, or that caused the patient to discontinue the study.
Acute worsening of neurologic symptoms typically within 6 months of start of therapy is a known complication associated with chelation therapy for WD. […] Neurologic AESI for Study 301 were considered as all AEs in the Medical Dictionary for Regulatory Activities (MedDRA) System Organ Class (SOC) “Nervous system disorders” or any other AE judged by the Investigator as an AESI.

[2] = Study 301, Cohort 1, lower part of Table 5
[3] = Study 301, Cohort 2, lower part of Table 5
[4] = Study 301, Overall, lower part of Table 5
[5] = Hematological AEs, Primary Evaluation Period, Safety Set, BC-TTM N = 137, SoC N = 70
[6] = Primary Evaluation Period, 48 Weeks, BC-TTM N = 137, SoC N = 70
[7] = Primary Evaluation Period, Safety Set, BC-TTM N = 137, SoC N = 70
[8] = Study 301, Primary Evaluation Period

Bis-choline tetrathiomolybdate [BC-TTM]
AUEC(0-48 week) LBC, Mean (copper; Study 301, Adolescent): 1.5 mmol/L
AUEC(0-48 week) LBC, Median (copper; Study 301, Adolescent): 1.2 mmol/L
AUEC(0-48 week) PTC (plasma total copper), Mean (copper; Study 301, Adolescent): 7.5 mmol/L
AUEC(0-48 week) PTC (plasma total copper), Median (copper; Study 301, Adolescent): 5.4 mmol/L
AUEC(0-48 week) dNCC, Mean (copper; Study 301, Adolescent): 2.7 mmol/L
AUEC(0-48 week) dNCC, Median (copper; Study 301, Adolescent): 2.3 mmol/L
AUEC(0-48 week) LBC, Mean (copper; Study 301, Adult): 1.8 mmol/L
AUEC(0-48 week) LBC, Median (copper; Study 301, Adult): 1.2 mmol/L
AUEC(0-48 week) PTC (plasma total copper), Mean (copper; Study 301, Adult): 7.8 mmol/L
AUEC(0-48 week) PTC (plasma total copper), Median (copper; Study 301, Adult): 7.3 mmol/L
AUEC(0-48 week) dNCC, Mean (copper; Study 301, Adult): 3.2 mmol/L
AUEC(0-48 week) dNCC, Median (copper; Study 301, Adult): 2.2 mmol/L
Mean Daily dNCC AUEC0-48w, LSM Diff (SE), BC-TTM vs SoC (copper; Study 301, Cohort 1): 1.64 (0.254) μmol/L
Mean Daily dNCC AUEC0-48w, Mean (SD) (copper; Study 301, Cohort 1 (prior SoC >28 days)): 2.68 (2.118) μmol/L
Mean Daily dNCC AUEC0-48w, LSM (SE) (copper; Study 301, Cohort 1, ANCOVA): 2.50 (0.150) μmol/L
Mean Daily dNCC AUEC0-48w, Between Group LSM Diff (SE) (copper; [2]): 1.72 (0.277) μmol/L
Mean Daily dNCC AUEC0-48w, Within Group LSM (SE) (copper; [2]): 2.59 (0.165) μmol/L
Mean Daily dNCC AUEC0-48w, LSM Diff (SE), BC-TTM vs SoC (copper; Study 301, Cohort 2): 3.79 (0.584) μmol/L
Mean Daily dNCC AUEC0-48w, Mean (SD) (copper; Study 301, Cohort 2 (treatment-naïve or SoC ≤28 days)): 4.58 (2.526) μmol/L
Mean Daily dNCC AUEC0-48w, LSM (SE) (copper; Study 301, Cohort 2, ANCOVA): 4.76 (0.319) μmol/L
Mean Daily dNCC AUEC0-48w, Between Group LSM Diff (SE) (copper; [3]): 3.68 (0.568) μmol/L
Mean Daily dNCC AUEC0-48w, Within Group LSM (SE) (copper; [3]): 4.64 (0.315) μmol/L
time of peak of plasma dNCC (copper; Study 301, FIG. 2): 4 to 6 weeks
Mean Daily dNCC AUEC0-48w, LSM Diff (SE), BC-TTM vs SoC (copper; Study 301, Overall): 2.18 (0.244) μmol/L
Mean Daily dNCC AUEC0-48w, LSM (SE) (copper; Study 301, Overall, ANCOVA): 3.18 μmol/L and 3.18 (0.167) μmol/L
Mean Daily dNCC AUEC0-48w, Mean (SD) (copper; Study 301, Overall): 3.12 (2.347) μmol/L
Mean Daily dNCC AUEC0-48w, Between Group LSM Diff (SE) (copper; [4]): 2.12 (0.253) μmol/L
Mean Daily dNCC AUEC0-48w, Within Group LSM (SE) (copper; [4]): 3.06 (0.179) μmol/L
Anemia, E events [1, 5]: 7
Anemia, N participants [1, 5]: 6
Anemia, participants (%) [1, 5]: 4.4%
Leukopenia, E events [1, 5]: 3
Leukopenia, N participants [1, 5]: 2
Leukopenia, participants (%) [1, 5]: 1.5%
Neutropenia, E events [1, 5]: 6
Neutropenia, N participants [1, 5]: 6
Neutropenia, participants (%) [1, 5]: 4.4%
Neutrophil count decreased, E events [1, 5]: 4
Neutrophil count decreased, N participants [1, 5]: 2
Neutrophil count decreased, participants (%) [1, 5]: 1.5%
Thrombocytopenia, E events [1, 5]: 2
Thrombocytopenia, N participants [1, 5]: 1
Thrombocytopenia, participants (%) [1, 5]: 0.7%
Alanine aminotransferase increased, N participants [1, 6]: 20
Alanine aminotransferase increased, participants (%) [1, 6]: 14.6%
Aspartate aminotransferase increased, N participants [1, 6]: 4
Aspartate aminotransferase increased, participants (%) [1, 6]: 2.9%
Ear and labyrinth disorders, N participants [1, 6]: 7
Ear and labyrinth disorders, participants (%) [1, 6]: 5.1%
Fatigue, N participants [1, 6]: 13
Fatigue, participants (%) [1, 6]: 9.5%
Gamma-glutamyltransferase increased, N participants [1, 6]: 3
Gamma-glutamyltransferase increased, participants (%) [1, 6]: 2.2%
Hepatic enzyme increased, N participants [1, 6]: 3
Hepatic enzyme increased, participants (%) [1, 6]: 2.2%
Hepatobiliary disorders, N participants [1, 6]: 9
Hepatobiliary disorders, participants (%) [1, 6]: 6.6%
Investigations, N participants [1, 6]: 46
Investigations, participants (%) [1, 6]: 33.6%
Nervous system disorders, N participants [1, 6]: 47
Nervous system disorders, participants (%) [1, 6]: 34.3%
Neutrophil count decreased, N participants [1, 6]: 2
Neutrophil count decreased, participants (%) [1, 6]: 1.5%
Pruritus, N participants [1, 6]: 5
Pruritus, participants (%) [1, 6]: 3.6%
Psychiatric disorders, N participants [1, 6]: 26
Psychiatric disorders, participants (%) [1, 6]: 19.0%
Pyrexia, N participants [1, 6]: 8
Pyrexia, participants (%) [1, 6]: 5.8%
Rash, N participants [1, 6]: 9
Rash, participants (%) [1, 6]: 6.6%
Skin and subcutaneous tissue disorders, N participants [1, 6]: 30
Skin and subcutaneous tissue disorders, participants (%) [1, 6]: 21.9%
ALT increased, E events [1, 7]: 25
ALT increased, N participants [1, 7]: 20
ALT increased, participants (%) [1, 7]: 14.6%
AST increased, E events [1, 7]: 4
AST increased, N participants [1, 7]: 4
AST increased, participants (%) [1, 7]: 2.9%
GGT increased, E events [1, 7]: 3
GGT increased, N participants [1, 7]: 3
GGT increased, participants (%) [1, 7]: 2.2%
Hepatic enzyme increased, E events [1, 7]: 5
Hepatic enzyme increased, N participants [1, 7]: 3
Hepatic enzyme increased, participants (%) [1, 7]: 2.2%
Hepatic function abnormal, E events [1, 7]: 3
Hepatic function abnormal, N participants [1, 7]: 3
Hepatic function abnormal, participants (%) [1, 7]: 2.2%
Hyperbilirubinemia, E events [1, 7]: 1
Hyperbilirubinemia, N participants [1, 7]: 1
Hyperbilirubinemia, participants (%) [1, 7]: 0.7%
Hypertransaminasemia, E events [1, 7]: 4
Hypertransaminasemia, N participants [1, 7]: 2
Hypertransaminasemia, participants (%) [1, 7]: 1.5%
Jaundice, E events [1, 7]: 1
Jaundice, N participants [1, 7]: 1
Jaundice, participants (%) [1, 7]: 0.7%
LFT abnormal, E events [1, 7]: 2
LFT abnormal, N participants [1, 7]: 2
LFT abnormal, participants (%) [1, 7]: 1.5%
LFT increased, E events [1, 7]: 4
LFT increased, N participants [1, 7]: 4
LFT increased, participants (%) [1, 7]: 2.9%
Liver disorder, E events [1, 7]: 1
Liver disorder, N participants [1, 7]: 1
Liver disorder, participants (%) [1, 7]: 0.7%
ALT increased as share of treatment-emergent adverse events (25/577) ([1]; Study 301): 4.3%
incidence of AE ALT increased ([1]; Study 301): 14.6%
incidence of SAEs, Nervous system disorders ([1]; Study 301): 4.4%
incidence of hematologic AEs, BC-TTM versus SoC ([1]; Study 301): similar
participants with Grade 4 AEs, Nervous system disorders ([1]; Study 301): 1 participant
participants with Grade 5 AEs, Nervous system disorders ([1]; Study 301): 1 participant
participants with highest severity Grade 1 AEs, Nervous system disorders ([1]; Study 301): 24.1%
participants with highest severity Grade 2 AEs, Nervous system disorders ([1]; Study 301): 13.9%
participants with neurologic AESI in the SOC Psychiatric disorders ([1]; Study 301): 3.6%
AEs in SOC Ear and labyrinth disorders [1, 8]: 5.1%
AEs in SOC Hepatobiliary disorders [1, 8]: 6.6%
AEs in SOC Investigations [1, 8]: 33.6%
AEs in SOC Psychiatric disorders [1, 8]: 19.0%
AEs in SOC Skin and subcutaneous tissue disorders [1, 8]: 21.9%
incidence of AEs in the SOC Nervous system disorders [1, 8]: 34.3%
incidence of headache [1, 8]: 8.0%
incidence of tremor [1, 8]: 7.3%
participants discontinued due to AE of anemia (Grade 1) ([1]; clinical program for BC-TTM): 1 participant
participants discontinued due to AE of neutropenia (Grade 2) ([1]; clinical program for BC-TTM): 1 participant
overall safety profile ([1]; participants with WD): acceptable safety profile and is generally well-tolerated

Reference: patent US20250082674A1, “METHODS OF TREATING COPPER METABOLISM-ASSOCIATED DISEASES OR DISORDERS” (priority 2021, published 2025)
